22 compounds from US10975101B2, “Ultra-potent vinca alkaloids: added molecular complexity further disrupts the tublin dimer-dimer interface” (priority 2016, dated 2021) can be followed below.

What is called IC50 is the concentration that inhibits the measured activity by half.

Assay [1] has as its system L1210 (mouse lymphocytic leukemia) cells. Nature of the assay: Cell growth inhibition assay, L1210. Format: cell-based. Particulars: 72 hours incubation, phosphatase assay. Here is the method:
(§1) Compounds were tested for their cell growth inhibition of L1210 (ATCC no. CCL-219, mouse lymphocytic leukemia) cells, HCT116 (ATCC no. CCL-247, human colorectal carcinoma) cells, and HCT116/VM46 (a vinblastine-resistant strain of HCT116) cells in culture. A population of cells (>1×10^6 cells/mL as determined with a hemocytometer) was diluted with an appropriate amount of Dulbecco's Modified Eagle Medium (DMEM, Gibco) containing 10% fetal bovine serum (FBS, Gibco) to a final concentration of 30000 cells/mL.
(§2) To each well of a 96-well plate (Corning Costar), 100 μL of the cell media solution was added with a multichannel pipet. The cultures were incubated at 37° C. in an atmosphere of 5% CO2 and 95% humidified air for 24 hours. The test compounds were added to the plate as follows: test substances were diluted in DMSO to a concentration of 1 mM and 10-fold serial dilutions were performed on a separate 96-well plate. Fresh culture medium (100 μL) was added to each well of cells to constitute 200 μL of medium per well followed by 2 μL of each test agent. Compounds were tested in duplicate (n=2-18 times) at six concentrations between 0-1000 nM or 0-10000 nM. Following addition, cultures were incubated for an additional 72 hours.
(§3) A phosphatase assay was used to establish the IC50 values as follows: the media in each cell was removed and 100 μL of phosphatase solution (100 mg phosphatase substrate in 30 mL of 0.1 M NaOAc, pH 5.5, 0.1% Triton X-100 buffer) was added to each well. The plates were incubated at 37° C. for either 5 minutes (L1210) or 15 minutes (HCT116 and HCT116/VM46). After the given incubation time, 50 μL of 0.1 N NaOH was added to each well and the absorption at 405 nm was determined using a 96 well plate reader. As the absorption is directly proportional to the number of living cells, the IC50 values were calculated and the reported values represent of the average of 4-36 determinations (SD±10%).

Assay [2] concerns HCT116/VM46 (a vinblastine-resistant strain of HCT116) cells. Nature of the assay: Cell growth inhibition assay, HCT116/VM46. The class given is cell-based, human. As to conditions: 72 hours incubation, phosphatase assay; Pgp-overexpressing resistant line. Here is the method: as §1, §2, §3
In assay [3] the test system is HCT116 (human colorectal carcinoma) cells. In words: cells. Format: cell-based. As to conditions: 72 hours incubation, phosphatase assay; read-out: IC50, HCT116. How it is done:
as §1, §2, §3

For the compound `CCC1(NC(=O)N2CCC(OC)C2)CC2CN(CCc3c([nH]c4ccccc34)C(C(=O)OC)(c3cc4c(cc3OC)N(C)C3C(O)(C(=O)OC)C(OC(C)=O)C5(CC)C=CCN6CCC43C65)C2)C1` (mixture of isomers) [Compound 16], the half-inhibitory concentration (IC50) worked out at 3.3 nM in assay [1], 25 nM in assay [2] and 1 nM in assay [3].
On the same counts, the results for `CCC1(NC(=O)N2CCC(Br)C2)CC2CN(CCc3c([nH]c4ccccc34)C(C(=O)OC)(c3cc4c(cc3OC)N(C)C3C(O)(C(=O)OC)C(OC(C)=O)C5(CC)C=CCN6CCC43C65)C2)C1` (mixture of isomers) [Compound 19] are 3.1 nM, 25 nM and 0.9 nM.
For `CC[C@]1(NC(=O)N2CCC(N(C)C)C2)C[C@H]2CN(CCc3c([nH]c4ccccc34)[C@@](C(=O)OC)(c3cc4c(cc3OC)N(C)[C@H]3[C@@](O)(C(=O)OC)[C@H](OC(C)=O)[C@]5(CC)C=CCN6CC[C@]43[C@@H]65)C2)C1` (single isomer, unassigned) [Compound 10], the 50% inhibitory concentration (IC50) in assay [1] came out at 20 nM; in assay [2], 500 nM; in assay [3] it was 20 nM.
In the case of `CC[C@]1(NC(=O)N2CCC(N(C)C)C2)C[C@H]2CN(CCc3c([nH]c4ccccc34)[C@@](C(=O)OC)(c3cc4c(cc3OC)N(C)[C@H]3[C@@](O)(C(=O)OC)[C@H](OC(C)=O)[C@]5(CC)C=CCN6CC[C@]43[C@@H]65)C2)C1` (single isomer, unassigned) [Compound 11], the half-maximal inhibitory concentration (IC50) in assay [1] came out at 14 nM; in assay [2] it was 390 nM; in assay [3] it was 6.2 nM.
On the same counts, the results for `CC[C@]1(NC(=O)N2CCC(F)C2)C[C@H]2CN(CCc3c([nH]c4ccccc34)[C@@](C(=O)OC)(c3cc4c(cc3OC)N(C)[C@H]3[C@@](O)(C(=O)OC)[C@H](OC(C)=O)[C@]5(CC)C=CCN6CC[C@]43[C@@H]65)C2)C1` (single isomer, unassigned) [Compound 17] are 0.62 nM, 7.2 nM and 0.64 nM.
On the same counts, the results for `CC[C@]1(NC(=O)N2CCC(F)C2)C[C@H]2CN(CCc3c([nH]c4ccccc34)[C@@](C(=O)OC)(c3cc4c(cc3OC)N(C)[C@H]3[C@@](O)(C(=O)OC)[C@H](OC(C)=O)[C@]5(CC)C=CCN6CC[C@]43[C@@H]65)C2)C1` (single isomer, unassigned) [Compound 18] are 0.6 nM, 20 nM and 0.61 nM.
On the same counts, the results for `CC[C@]1(NC(=O)N2CCC(C#N)C2)C[C@H]2CN(CCc3c([nH]c4ccccc34)[C@@](C(=O)OC)(c3cc4c(cc3OC)N(C)[C@H]3[C@@](O)(C(=O)OC)[C@H](OC(C)=O)[C@]5(CC)C=CCN6CC[C@]43[C@@H]65)C2)C1` (single isomer, unassigned) [Compound 20] are 3.7 nM, 60 nM and 1.5 nM.
For `CC[C@]1(NC(=O)N2CCC(C#N)C2)C[C@H]2CN(CCc3c([nH]c4ccccc34)[C@@](C(=O)OC)(c3cc4c(cc3OC)N(C)[C@H]3[C@@](O)(C(=O)OC)[C@H](OC(C)=O)[C@]5(CC)C=CCN6CC[C@]43[C@@H]65)C2)C1` (single isomer, unassigned) [Compound 21], the IC50 in assay [1] worked out at 5.1 nM; in assay [2], 60 nM; in assay [3], 1.8 nM.
`CC[C@]1(NC(=O)N2CC=CC2)C[C@H]2CN(CCc3c([nH]c4ccccc34)[C@@](C(=O)OC)(c3cc4c(cc3OC)N(C)[C@H]3[C@@](O)(C(=O)OC)[C@H](OC(C)=O)[C@]5(CC)C=CCN6CC[C@]43[C@@H]65)C2)C1` [Compound 22]: the figures for the IC50 in assay [1], in assay [2] and in assay [3] were 0.53 nM, 5.7 nM and 0.5 nM, respectively.
As to `CC[C@]1(NC(=O)N2CCCCCC2)C[C@H]2CN(CCc3c([nH]c4ccccc34)[C@@](C(=O)OC)(c3cc4c(cc3OC)N(C)[C@H]3[C@@](O)(C(=O)OC)[C@H](OC(C)=O)[C@]5(CC)C=CCN6CC[C@]43[C@@H]65)C2)C1` [Compound 24], the half-maximal inhibitory concentration (IC50) in assay [1] was 4.3 nM; in assay [2] it was 35 nM; in assay [3] it was 3.1 nM.
For `CC[C@]1(NC(=O)N2CCCCCCC2)C[C@H]2CN(CCc3c([nH]c4ccccc34)[C@@](C(=O)OC)(c3cc4c(cc3OC)N(C)[C@H]3[C@@](O)(C(=O)OC)[C@H](OC(C)=O)[C@]5(CC)C=CCN6CC[C@]43[C@@H]65)C2)C1` [Compound 25], the IC50 was determined as 60 nM in assay [1], 330 nM in assay [2] and 35 nM in assay [3].
For the compound `CC[C@]1(NC(=O)N2C3CCC2CC3)C[C@H]2CN(CCc3c([nH]c4ccccc34)[C@@](C(=O)OC)(c3cc4c(cc3OC)N(C)[C@H]3[C@@](O)(C(=O)OC)[C@H](OC(C)=O)[C@]5(CC)C=CCN6CC[C@]43[C@@H]65)C2)C1` [Compound 26], the IC50 in assay [1] was 40 nM; in assay [2], 250 nM; in assay [3], 20 nM.
For the compound `CC[C@]1(NC(=O)N2CCc3ccccc3CC2)C[C@H]2CN(CCc3c([nH]c4ccccc34)[C@@](C(=O)OC)(c3cc4c(cc3OC)N(C)[C@H]3[C@@](O)(C(=O)OC)[C@H](OC(C)=O)[C@]5(CC)C=CCN6CC[C@]43[C@@H]65)C2)C1` [Compound 27], the IC50 came to 0.59 nM in assay [1], 6.2 nM in assay [2] and 0.69 nM in assay [3].
On the same counts, the results for `CC[C@]1(NC(=O)N2Cc3ccc(C)cc3C2)C[C@H]2CN(CCc3c([nH]c4ccccc34)[C@@](C(=O)OC)(c3cc4c(cc3OC)N(C)[C@H]3[C@@](O)(C(=O)OC)[C@H](OC(C)=O)[C@]5(CC)C=CCN6CC[C@]43[C@@H]65)C2)C1` [Compound 30] are 0.41 nM, 5.9 nM and 0.44 nM.
Consider `CC[C@]1(NC(=O)N2Cc3ccc(F)cc3C2)C[C@H]2CN(CCc3c([nH]c4ccccc34)[C@@](C(=O)OC)(c3cc4c(cc3OC)N(C)[C@H]3[C@@](O)(C(=O)OC)[C@H](OC(C)=O)[C@]5(CC)C=CCN6CC[C@]43[C@@H]65)C2)C1` [Compound 31], for which the results for the IC50 in assay [1], in assay [2] and in assay [3] were 0.63 nM, 5.2 nM and 0.52 nM, respectively.
On the same counts, the results for `CC[C@]1(NC(=O)N2Cc3ccc(Cl)cc3C2)C[C@H]2CN(CCc3c([nH]c4ccccc34)[C@@](C(=O)OC)(c3cc4c(cc3OC)N(C)[C@H]3[C@@](O)(C(=O)OC)[C@H](OC(C)=O)[C@]5(CC)C=CCN6CC[C@]43[C@@H]65)C2)C1` [Compound 32] are 0.5 nM, 5.7 nM and 0.55 nM.
On the same counts, the results for `CC[C@]1(NC(=O)N2Cc3ccc(Br)cc3C2)C[C@H]2CN(CCc3c([nH]c4ccccc34)[C@@](C(=O)OC)(c3cc4c(cc3OC)N(C)[C@H]3[C@@](O)(C(=O)OC)[C@H](OC(C)=O)[C@]5(CC)C=CCN6CC[C@]43[C@@H]65)C2)C1` [Compound 33] are 0.62 nM, 6.4 nM and 0.56 nM.
On the same counts, the results for `CC[C@]1(NC(=O)N2Cc3ccc(C(F)(F)F)cc3C2)C[C@H]2CN(CCc3c([nH]c4ccccc34)[C@@](C(=O)OC)(c3cc4c(cc3OC)N(C)[C@H]3[C@@](O)(C(=O)OC)[C@H](OC(C)=O)[C@]5(CC)C=CCN6CC[C@]43[C@@H]65)C2)C1` [Compound 34] are 0.59 nM, 6.2 nM and 0.67 nM.
As for `CC[C@]1(NC(=O)N2Cc3ccc(N)cc3C2)C[C@H]2CN(CCc3c([nH]c4ccccc34)[C@@](C(=O)OC)(c3cc4c(cc3OC)N(C)[C@H]3[C@@](O)(C(=O)OC)[C@H](OC(C)=O)[C@]5(CC)C=CCN6CC[C@]43[C@@H]65)C2)C1` [Compound 36], the IC50 worked out at 0.47 nM in assay [1], 6.8 nM in assay [2] and 0.42 nM in assay [3].
On the same counts, the results for `CC[C@]1(NC(=O)N2Cc3ccc(NC)cc3C2)C[C@H]2CN(CCc3c([nH]c4ccccc34)[C@@](C(=O)OC)(c3cc4c(cc3OC)N(C)[C@H]3[C@@](O)(C(=O)OC)[C@H](OC(C)=O)[C@]5(CC)C=CCN6CC[C@]43[C@@H]65)C2)C1` [Compound 37] are 0.45 nM, 4.6 nM and 0.43 nM.
On the same counts, the results for `CC[C@]1(NC(=O)N2Cc3ccc(N(C)C)cc3C2)C[C@H]2CN(CCc3c([nH]c4ccccc34)[C@@](C(=O)OC)(c3cc4c(cc3OC)N(C)[C@H]3[C@@](O)(C(=O)OC)[C@H](OC(C)=O)[C@]5(CC)C=CCN6CC[C@]43[C@@H]65)C2)C1` [Compound 38] are 0.5 nM, 3.9 nM and 0.62 nM.
On the same counts, the results for `CCCNc1ccc2c(c1)CN(C(=O)N[C@@]1(CC)C[C@H]3CN(CCc4c([nH]c5ccccc45)[C@@](C(=O)OC)(c4cc5c(cc4OC)N(C)[C@H]4[C@@](O)(C(=O)OC)[C@H](OC(C)=O)[C@]6(CC)C=CCN7CC[C@]54[C@@H]76)C3)C1)C2` [Compound 39] are 0.4 nM, 4.6 nM and 0.31 nM.
